From ChEMBL document CHEMBL6134905, “Double Swords in One: Novel Selective PI3K/110β PROTAC Degraders for the Treatment of Multidrug-Resistant Cancer by Activating ERS and Inhibiting P-gp” (J Med Chem, 2025) come the findings set out here.

Structures are written as SMILES. Activity calls are given as the source filed them. The rule behind the calls is not given here.

In assay [1] the target is T1, von Hippel-Lindau disease tumor suppressor/Phosphatidylinositol 4,5-bisphosphate 3-kinase catalytic subunit beta isoform (Homo sapiens, UniProt P42338+P40337). The assay is described as follows: PROTAC activity at PI3K-p110beta/VHL in human MCF7/ADM cells assessed as reduction in PI3K-p110beta level at 25 uM incubated for 24 hrs by Western blot analysis relative to control. Further details: scale not given: the % may be the effect or the level left. The format is cell-based. On the technique in general: In western blotting, separated proteins are transferred to a membrane and probed.
Target sequence in this assay (P40337 whole entry, looked up, canonical isoform): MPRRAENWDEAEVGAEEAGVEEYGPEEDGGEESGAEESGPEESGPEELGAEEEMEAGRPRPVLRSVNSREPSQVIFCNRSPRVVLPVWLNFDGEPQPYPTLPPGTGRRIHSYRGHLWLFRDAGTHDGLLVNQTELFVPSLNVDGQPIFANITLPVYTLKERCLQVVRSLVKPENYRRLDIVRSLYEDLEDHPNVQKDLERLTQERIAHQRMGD
Target sequence in this assay (P42338 whole entry, looked up, canonical isoform): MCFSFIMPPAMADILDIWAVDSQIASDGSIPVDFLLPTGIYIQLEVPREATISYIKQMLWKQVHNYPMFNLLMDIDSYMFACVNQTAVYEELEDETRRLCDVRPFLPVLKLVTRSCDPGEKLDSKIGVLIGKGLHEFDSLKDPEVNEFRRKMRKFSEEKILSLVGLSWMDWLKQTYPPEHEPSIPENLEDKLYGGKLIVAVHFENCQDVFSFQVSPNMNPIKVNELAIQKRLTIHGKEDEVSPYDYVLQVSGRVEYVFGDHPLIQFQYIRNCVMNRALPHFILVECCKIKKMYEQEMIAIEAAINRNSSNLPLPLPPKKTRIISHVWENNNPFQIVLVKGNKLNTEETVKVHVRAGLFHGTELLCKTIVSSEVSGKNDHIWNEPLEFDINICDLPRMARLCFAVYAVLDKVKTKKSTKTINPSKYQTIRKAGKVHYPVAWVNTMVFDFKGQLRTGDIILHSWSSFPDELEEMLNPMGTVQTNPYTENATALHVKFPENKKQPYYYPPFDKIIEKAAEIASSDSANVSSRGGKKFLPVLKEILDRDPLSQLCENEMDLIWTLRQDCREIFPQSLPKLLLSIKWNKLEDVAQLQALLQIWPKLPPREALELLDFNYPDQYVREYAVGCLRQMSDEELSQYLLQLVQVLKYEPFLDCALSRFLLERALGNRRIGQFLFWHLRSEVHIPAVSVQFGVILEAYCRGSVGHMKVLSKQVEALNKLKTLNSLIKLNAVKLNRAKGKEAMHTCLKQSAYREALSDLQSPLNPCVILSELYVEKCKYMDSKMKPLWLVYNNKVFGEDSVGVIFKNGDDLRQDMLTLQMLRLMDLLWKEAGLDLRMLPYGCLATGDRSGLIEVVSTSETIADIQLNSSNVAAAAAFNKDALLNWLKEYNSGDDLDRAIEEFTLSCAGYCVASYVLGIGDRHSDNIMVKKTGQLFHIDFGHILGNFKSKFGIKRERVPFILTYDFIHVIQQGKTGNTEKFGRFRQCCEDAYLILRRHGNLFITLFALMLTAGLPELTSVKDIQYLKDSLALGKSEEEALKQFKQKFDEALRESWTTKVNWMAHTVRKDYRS

The target of assay [2] is T2, von Hippel-Lindau disease tumor suppressor/Phosphatidylinositol 4,5-bisphosphate 3-kinase catalytic subunit alpha isoform (Homo sapiens, UniProt P42336+P40337). The assay can be described thus: PROTAC activity at PI3K-p110alpha/VHL in human A549/DDP cells assessed as reduction in PI3K-p110alpha level incubated for 24 hrs by Western blot analysis. The assay is classed as cell-based. The settings on record: dose 0.04-50 µM.
T2 sequence (P40337 whole entry, looked up, canonical isoform): as the sequence (P40337 whole entry, looked up, canonical isoform) above
T2 sequence (P42336 whole entry, looked up, canonical isoform): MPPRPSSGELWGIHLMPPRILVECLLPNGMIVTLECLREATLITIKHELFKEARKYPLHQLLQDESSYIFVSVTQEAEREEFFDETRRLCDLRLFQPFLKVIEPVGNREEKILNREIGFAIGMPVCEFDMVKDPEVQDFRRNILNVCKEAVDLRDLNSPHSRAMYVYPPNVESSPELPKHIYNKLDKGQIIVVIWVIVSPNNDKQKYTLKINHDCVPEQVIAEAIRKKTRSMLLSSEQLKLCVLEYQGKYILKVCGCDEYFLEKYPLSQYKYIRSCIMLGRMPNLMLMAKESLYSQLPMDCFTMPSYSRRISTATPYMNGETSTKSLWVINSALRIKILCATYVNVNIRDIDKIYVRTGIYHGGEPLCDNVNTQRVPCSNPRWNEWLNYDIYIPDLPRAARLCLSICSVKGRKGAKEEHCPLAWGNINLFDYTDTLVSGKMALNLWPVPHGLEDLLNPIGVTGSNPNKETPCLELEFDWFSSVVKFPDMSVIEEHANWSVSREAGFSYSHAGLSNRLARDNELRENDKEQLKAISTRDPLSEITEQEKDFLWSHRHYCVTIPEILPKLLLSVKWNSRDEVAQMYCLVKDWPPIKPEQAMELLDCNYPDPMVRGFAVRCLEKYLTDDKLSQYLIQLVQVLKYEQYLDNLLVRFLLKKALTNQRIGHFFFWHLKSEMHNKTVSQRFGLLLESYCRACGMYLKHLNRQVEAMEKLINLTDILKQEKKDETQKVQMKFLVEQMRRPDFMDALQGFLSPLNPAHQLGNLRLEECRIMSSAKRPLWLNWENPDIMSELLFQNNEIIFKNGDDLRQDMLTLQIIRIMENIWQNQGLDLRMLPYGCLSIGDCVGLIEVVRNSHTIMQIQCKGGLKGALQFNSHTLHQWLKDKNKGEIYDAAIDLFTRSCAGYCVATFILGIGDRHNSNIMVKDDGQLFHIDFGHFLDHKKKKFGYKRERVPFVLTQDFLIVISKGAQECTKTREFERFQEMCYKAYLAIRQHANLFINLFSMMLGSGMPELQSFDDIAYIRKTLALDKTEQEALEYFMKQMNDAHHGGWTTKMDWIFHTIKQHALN

A short description of assay [3]: Induction of apoptosis in human MCF7/ADM cells at 12.5 uM incubated for 24 hrs by Annexin V-FITC/PI staining based flow cytometry analysis (reference value: 5.20%). The format is functional. For orientation: In flow cytometry, cells or beads pass a laser one at a time.
Assay [4] has as its target T1, von Hippel-Lindau disease tumor suppressor/Phosphatidylinositol 4,5-bisphosphate 3-kinase catalytic subunit beta isoform. The assay is described as follows: PROTAC activity at PI3K-p110beta/VHL in human MCF7/ADM cells assessed as reduction in PI3K-p110beta level incubated for 24 hrs by Western blot analysis. Particulars: dose 0.04-50 µM. The format is cell-based.
Target sequence in this assay (P40337 whole entry, looked up, canonical isoform): as the sequence (P40337 whole entry, looked up, canonical isoform) above
Target sequence in this assay (P42338 whole entry, looked up, canonical isoform): as the sequence (P42338 whole entry, looked up, canonical isoform) above
The nature of assay [5]: Induction of apoptosis in human MCF7/ADM cells at 25 uM incubated for 24 hrs by Annexin V-FITC/PI staining based flow cytometry analysis (reference value: 5.20%). The assay is classed as functional.
A short description of assay [6]: Induction of apoptosis in human MCF7/ADM cells at 6.25 uM incubated for 24 hrs by Annexin V-FITC/PI staining based flow cytometry analysis (reference value: 5.20%). The format is functional.
For assay [7], the system named is A549/CDDP. The assay can be described thus: Cytotoxicity against human A549/DDP cells at 100 uM incubated for 24 hrs. The format is functional, cell-based.
The target of assay [8] is T1, von Hippel-Lindau disease tumor suppressor/Phosphatidylinositol 4,5-bisphosphate 3-kinase catalytic subunit beta isoform. The assay is described as follows: PROTAC activity at PI3K-p110beta/VHL in human MCF7/ADM cells assessed as induction of PI3K-p110beta degradation incubated for 24 hrs by Western blot analysis. The format is cell-based.
Target sequence in this assay (P42338 whole entry, canonical isoform): as the sequence (P42338 whole entry, looked up, canonical isoform) above
Target sequence in this assay (P40337 whole entry, canonical isoform): as the sequence (P40337 whole entry, looked up, canonical isoform) above
For assay [9] the target is unchanged. The assay is described as follows: PROTAC activity at PI3K-p110beta/VHL in human A549/DDP cells assessed as reduction in PI3K-p110beta level at 25 uM incubated for 24 hrs by Western blot analysis relative to control. The format is cell-based. On the set-up: scale not given: the % may be the effect or the level left.
Target sequence in this assay (P40337 whole entry, looked up, canonical isoform): as above
Target sequence in this assay (P42338 whole entry, looked up, canonical isoform): as the sequence (P42338 whole entry, looked up, canonical isoform) above
In assay [10] the test system is A549/CDDP. The assay can be described thus: Induction of apoptosis in human A549/DDP cells at 25 uM incubated for 24 hrs by Annexin V-FITC/PI staining based flow cytometry analysis (reference value: 4.27%). The assay is classed as functional.
The target in assay [11] is T2, von Hippel-Lindau disease tumor suppressor/Phosphatidylinositol 4,5-bisphosphate 3-kinase catalytic subunit alpha isoform. The assay can be described thus: PROTAC activity at PI3K-p110alpha/VHL in human A549/DDP cells assessed as reduction in PI3K-p110alpha mRNA level at 25 uM measured for 24 hrs by qRT-PCR analysis. The format is cell-based. (Quantitative PCR measures a nucleic acid by following its amplification.)

With `Cc1cc(C(C)Nc2ccccc2C(=O)NCCOCCOCCC(=O)N[C@H](C(=O)N2C[C@H](O)C[C@H]2C(=O)NCc2ccc(-c3scnc3C)cc2)C(C)(C)C)c2nc(N3CCOCC3)cc(=O)n2c1` (stereo partly specified), the Activity was 75% in [1]; “Dose-dependent-effect” in assay [2]; 15.59% in assay [3]; “Dose-dependent-effect” in assay [4]; 26.66% in assay [5]; 6.88% in assay [6].

For orientation: DC50 means the midpoint of the concentration-degradation curve. `Cc1cc(C(C)Nc2ccccc2C(=O)NCCCCCCC(=O)N[C@H](C(=O)N2C[C@H](O)C[C@H]2C(=O)NCc2ccc(-c3scnc3C)cc2)C(C)(C)C)c2nc(N3CCOCC3)cc(=O)n2c1` (stereo partly specified): the result in assay [7] was Active. For the same compound, the DC50 in assay [8] worked out at 1260 nM. Besides, the results for the Activity in assay [9] and in [10] were 88% and 23.83%, respectively. In assay [11], the outcome was inactive.
